Counter-ions that a name gives are not always drawn. Like-named read-outs stand apart in the source and are kept apart here.
Experiments:
Design in all cases: species or system AML cell lines (8); Primary HTS, single concentration about 10 uM, Cell Titer Glo viability; log10 luminescence, per cent inhibition relative to cycloheximide control
Settings in all cases: 72 h, relative to cycloheximide control, log10 luminescence, inhibitor
[1] = tested on: MV4-11
[2] = tested on: ML-2
[3] = tested on: CMS
[4] = tested on: U937
[5] = tested on: CMK
[6] = tested on: CHRF288-11
[7] = tested on: MOLM-13
[8] = tested on: M07e

Compound	MV4-11 %inh [1] [%]	ML-2 %inh [2] [%]	CMS %inh [3] [%]	U937 %inh [4] [%]	CMK %inh [5] [%]	CHRF288-11 %inh [6] [%]	MOLM-13 %inh [7] [%]	M07e %inh [8] [%]	MV4-11 %inh ([1]; MV4-11 %inh, 10 µM) [%]	ML-2 %inh ([2]; ML-2 %inh, 10 µM) [%]	CMS %inh ([3]; CMS %inh, 10 µM) [%]	U937 %inh ([4]; U937 %inh, 10 µM) [%]	CMK %inh ([5]; CMK %inh, 10 µM) [%]	CHRF288-11 %inh ([6]; CHRF288-11 %inh, 10 µM) [%]	MOLM-13 %inh ([7]; MOLM-13 %inh, 10 µM) [%]	M07e %inh ([8]; M07e %inh, 10 µM) [%]
O=C(O)P(=O)(O)O [SJ000285291-3, FOSCARNET SODIUM]	0.7745	-0.9621	0.8709	-2.189	3.052	-2.096	3.283	-4.14								
CN[C@@H]1[C@H](O[C@H]2[C@H](O[C@H]3[C@H](O)[C@@H](O)[C@H](N=C(N)N)[C@@H](O)[C@@H]3N=C(N)N)O[C@@H](C)[C@]2(O)C=O)O[C@@H](CO)[C@H](O)[C@H]1O [SJ000285297-4, STREPTOMYCIN SULFATE]									-1.642	-3.476	-1.268	-1.404	3.295	6.76	1.953	-4.718
CN[C@@H]1[C@H](O[C@H]2[C@H](O[C@H]3[C@H](O)[C@@H](O)[C@H](N=C(N)N)[C@@H](O)[C@@H]3N=C(N)N)O[C@@H](C)[C@]2(O)C=O)O[C@@H](CO)[C@H](O)[C@H]1O [SJ000285297-5, STREPTOMYCIN SULFATE]									1.701	1.375	-4.665	-2.931	-3.106	-4.766	2.09	1.975
Oc1c(Cl)cc(Cl)c2cccnc12 [SJ000285324-3, CHLOROXINE]	77.67	49.1	2.824	23.85	45.1	73.25	6.345	20.56								
CC(C)(Oc1ccc(Cl)cc1)C(=O)O [SJ000285361-4, CLOFIBRIC ACID]	17.98	4.873	10.42	12.99	-0.9561	12.15	6.685	1.241								
COc1ccc(Cl)cc1C(=O)NCCc1ccc(S(=O)(=O)NC(=O)NC2CCCCC2)cc1 [SJ000285391-7, GLYBURIDE | GLIBENCLAMIDE]	0.5716	1.589	-0.9752	0.5073	-6.568	12.75	3.373	3.672								
CCC1(C)CC(=O)NC1=O (centres unmarked) [SJ000285397-7, ETHOSUXIMIDE]	-0.6847	3.243	-0.558	0.5757	-1.781	0.04293	28.73	-0.04938								
O=C1CCc2cc(OCCCCc3nnnn3C3CCCCC3)ccc2N1 [SJ000285433-6, CILOSTAZOL]	1.479	-1.307	1.219	-1.919	3.033	-1.23	2.454	4.292								
COCCOC(=O)C1=C(C)NC(C)=C(C(=O)OC(C)C)C1c1cccc([N+](=O)[O-])c1 (centres unmarked) [SJ000285435-8, NIMODIPINE]									7.361	3.664	-0.4109	6.247	-2.491	5.054	3.286	-0.8371
COCCOC(=O)C1=C(C)NC(C)=C(C(=O)OC(C)C)C1c1cccc([N+](=O)[O-])c1 (centres unmarked) [SJ000285435-9, NIMODIPINE]									8.576	2.121	-2.02	7.911	3.053	6.868	3.201	0.4803

— publication PMC6522510 (Nature Communications, 2019)
